Tests used:
[1] = system: wild-type Col-0 gene expression (chitooligosaccharide-responsive genes, CRGs); assay: Affymetrix ATH1 whole genome array, response to chitooctaose in wild-type plants; assay type: in vivo, Arabidopsis thaliana
Description: (§1) More particularly, Arabidopsis seedlings were grown hydroponically as described by Ramonell et al., 2005. Fourteen-day old seedlings were treated with chitooctaose (Sigma, St. Louis, Mo., USA) at a concentration of 1 μM or with distilled water (as a control) for 30 minutes. To test flagellin-responsive genes, 14-day old seedlings were also treated with the flagellinderived flg22 peptide (dissolved in dimethyl sulfoxide, DMSO) at a final concentration of 10 μM or with an equivalent amount of DMSO (as a control) for 30 minutes. To test other defense pathways, Arabidopsis seedlings were also treated for 24 hours with 5 mM SA, 100 μM MeJA, and 0.5 mM ACC (all obtained from Sigma, St. Louis, Mo., USA) and dissolved in 0.1% ethanol. The control plants were similarly treated with an equivalent amount of ethanol. After treatment, the seedlings were collected and frozen in liquid nitrogen for RNA isolation.
(§2) Total RNA was isolated using the Trizol Reagent according to the manufacturer's instructions (Invitrogen, Carlsbad, Calif.). The isolated RNA was further purified using Qiagen RNeasy Mini Columns according to the manufacturer's instruction (Qiagen, Valencia, Calif., USA) and treated with Turbo™ DNase (Ambion, Austin, Tex., USA). For semi-quantitative RT-PCR or quantitative 17 PCR, cDNA was synthesized using M-MLV reverse transcriptase according to the manufacturer's instructions (Promega, Madison, Wis., USA).
(§3) Gene expression profiles in the AtLysM RLK1 mutant in response to chitooctaose were studied using the Affymetrix Arabidopsis Whole Genome Array ATH1 (with ˜22000 genes), with wild-type plants as a control. […] A row represents a gene and each column represents a sample. WT-8mer=wild-type Col-0 treated with chitooctaose; WT-water=wild-type Col-0 treated with distilled water; Mu-water=the AtLysM RLK1 mutant treated with distilled water; Mu-8mer=the AtLysM RLK1 mutant treated with chitooctaose. The color bar below the cluster picture: the red color indicates the expression level of a gene is above the mean expression of the gene across all samples; the green color indicates expression lower than the mean.

[2] = system: AtLysM RLK1 mutant gene expression (chitooligosaccharide-responsive genes, CRGs); assay: Affymetrix ATH1 whole genome array, response to chitooctaose in the AtLysM RLK1 mutant; assay type: in vivo, Arabidopsis thaliana
Description: as §1, §2
The AtLysM RLK1 insertion mutant (096F09) used in the current work was generated in the context of the GABI-Kat program and provided by Bernd Weisshaar (MPI for Plant Breeding Research, Cologne, Germany). See Shibuya et al., 2001. The homozygous plants were identified by genotyping using the following gene-specific primers: […]
as §3

[3] = system: selected CRGs (MPK3, WRKY22, WRKY29, WRKY33, WRKY53); assay: Semi-quantitative RT-PCR of selected CRGs after chitooctaose; assay type: in vivo, Arabidopsis thaliana; conditions: chitooctaose or water for 30 minutes; mutant vs wild type
Description: To test whether non-leguminous LysM RLKs may be involved in the perception of chitooligosaccharides and the subsequent induction of downstream genes that have been implicated in fungal defense, T-DNA insertion mutants were obtained for all five LysM RLK genes (i.e., At1g51940, At2g23770, At2g33580, At3g01840, and At3g21630) in Arabidopsis. The gene At3g21630 (SEQ ID. No. 3) is also termed AtLYK1 or AtLysM RLK1. Homozygous mutants were then treated with a purified chitooligosaccharide (chitooctaose) and the expression levels of known CRGs, such as MPK3 (At3g45640, SEQ ID. No. 8), WRKY22 (At4g01250, SEQ ID. No. 9), WRKY29 (At4g23550, SEQ ID. No. 10), WRKY33 (At2g38470, SEQ ID. No. 11), and WRKY53 (At4g23810, SEQ ID. No. 12), were measured.
More particularly, Arabidopsis seedlings were grown hydroponically as described by Ramonell et al., 2005. […]
Total RNA was isolated using the Trizol Reagent according to the manufacturer's instructions (Invitrogen, Carlsbad, Calif.). […] For semi-quantitative RT-PCR or quantitative 17 PCR, cDNA was synthesized using M-MLV reverse transcriptase according to the manufacturer's instructions (Promega, Madison, Wis., USA). […]
Both the mutant (Mu) and wildtype (WT) plants were treated with purified chitooctaose or water (as a control) for 30 minutes and gene expression of the selected CRGs was detected using semi-quantitative RT-PCR. […]

[4] = system: selected CRGs (LjMPK3, LjWRKY22, LjWRKY33, LjWRKY53); assay: Semi-quantitative RT-PCR of selected CRGs in Lotus japonicus Nod signal receptor mutants; assay type: in vivo; conditions: chitooctaose 1 μM, 30 minutes; wild type Gifu as comparison
Description: PCR reactions were conducted using Taq polymerase (Promega, Madison, Wis., USA) under the following conditions: 94° C., 3 minutes; 94° C., 30 seconds; 55° C., 30 seconds; 72° C., 1.5 minutes; 25 cycles; 72° C., 3 minutes. The corresponding CRG genes in Lotus japonicus were identified by blasting the cDNA sequences of the above Arabidopsis CRGs (and also actin-2) against the TIGR Lotus japonicus Gene Index. The closest hits were chosen and arbitrarily named after their Arabidopsis counterparts with the prefix Lj (standing for Lotus japonicus). The following primer pairs were designed to detect these genes:
LjActin-2 was used as an internal control.
LysM RLK NFR1 and NFR5 Nod signal receptors specifically recognize a lipochitin molecule with a back-bone of 4-5 units of N-acetyl-D-glucosamine. For review, see Stacey et al. 2006. […] In more details, both the wild type (Gifu) and the Nod signal receptor mutants nfr1-1 and nfr5-1 were treated with chitooctaose for 30 minutes at a concentration of 1 μM or with water (as a control). The selected CRGS were detected using semi-quantitative RT-PCR. LjActin-2 was used as an internal control.

[5] = system: Arabidopsis LysM RLK genes; assay: DNA microarray (Affymetrix 24K chip) of plants sprayed with chitin; assay type: in vivo, Arabidopsis thaliana; conditions: leaves sprayed with chitin (100 μM)+0.2% Tween-20
Description: A total of five LysM receptor-like kinase genes were identified in Arabidopsis from the studies described in Example 1. The Genbank numbers of these five genes are AtLYK1 (GenBank accession #At3g21630), AtLYK2 (GenBank accession # At3g01840), AtLYK3 (GenBank accession #At1g51940), AtLYK4 (GenBank accession # At2g23770), AtLYK5 (GenBank accession #At2g33580), and, which are designated as SEQ ID. Nos. 3-7, respectively. A DNA microarray experiment was performed by treating Arabidopsis plants with chitin. Leaves were treated by spraying with chitin (100 μM)+0.2% Tween-20. The Affymetrix 24K Arabidopsis genome chip was utilized according to the manufacturer's instructions for this test. […] The data implicate these genes in plant chitin response.

soybean LysM RLK genes = assay: Expression analysis of GmLysM receptor-like kinases in chitin-treated leaves; assay type: in vivo; conditions: leaves sprayed with chitin (100 μM)+0.2% Tween-20
Description: Soybean genotypes used for mapping of soybean QTLs for white mold resistance included Corsoy 79 and Dassel. […] Finally, as was the case with Arabidopsis, some of the soybean LysM RLK genes are induced upon treatment of soybean with chitin, as confirmed by the results shown in FIG. 20. Leaves were treated by spraying with chitin (100 μM)+0.2% Tween-20.

transcription factors = assay: qRT-PCR of transcription factors after chitin treatment; parameters: species or system Arabidopsis thaliana; conditions: in vivo
Description: Based on the genome-wide gene expression studies using microarrays, quantitative reverse transcriptase-polymerase chain reaction (qRT-PCR) was conducted to identify over 120 different transcription factors in Arabidopsis thaliana whose expression is enhanced by chitin treatment. Many of these transcription factors are known to be involved in fungal pathogen response. […] Each of these transcription factors is a potential target for genetic manipulation in order to enhance disease resistance. The results of this study are described in greater details in Libault et al., 2007, which is hereby expressly incorporated by reference.

AtLysM RLK1 gene = assay: RT-PCR of AtLysM RLK1 gene expression after elicitor treatment; assay type: in vivo, Arabidopsis thaliana; conditions: seedlings, chitooctaose 1 μM, 30 minutes
Description: as §1
These two primers were also used to detect the expression of the AtLysM RLK1 gene via RT-PCR. The other primers used to detect the transcript 5′ of the insertion site were as follows:
The expression pattern of the AtLysM RLK1 gene was also studied. […]

Alternaria brassicicola = assay: Pretreatment before inoculation with Alternaria brassicicola (lesion size, spore production); assay type: in vivo, Arabidopsis thaliana
Excerpt: The susceptibility appeared to be less than that observed in NahG plants, which express salicylate hydrolase, preventing the accumulation of salicylic acid, and are therefore very susceptible to the fungal pathogen (FIG. 13A). […] Arrows indicate sites where conidiophores are forming. All photographs were taken six days after inoculation. Bar=0.1 mm. 4-week-old plants were also inoculated with the necrotrophic fungus Alternaria brassicicola. Three days after inoculation, the mutant developed slightly bigger lesions than the wild-type plants, as measured by average diameter of the lesions (FIGS. 13C and 13D). In agreement with this, the mutant plants also produced more spores per lesion than the wild-type plants (FIG. 13E).
(§4) To test the specificity of AtLysM RLK1 in fungal disease resistance, the response of the mutant to the bacterial pathogen Pseudomonas syringae pv. Tomato DC3000 was also examined. […] WT=wild-type Col-0; Mu=the AtLysM RLK1 mutant. CSC=crab shell chitin, 8mer=chitooctaose, and water=distilled water. Empty columns=WT Col-0 and solid black columns=the AtLysM RLK1 mutant. Asterisks indicate statistically significant differences between the mutant and wild-type plants (P<0.05). Error bars=standard error. Each experiment was repeated at least twice with similar results.

[6] = system: Pseudomonas syringae pv. tomato DC3000; assay: Pretreatment before inoculation with Pseudomonas syringae pv. tomato DC3000 (bacterial growth); assay type: in vivo, Arabidopsis thaliana
Excerpt: as §4

[7] = pretreatment of AtLysM RLK1 mutant plants
[8] = pretreatment of wild-type plants

Molecule: CC(=O)N[C@H]1[C@H](O[C@H]2[C@H](O)[C@@H](NC(C)=O)[C@H](O[C@H]3[C@H](O)[C@@H](NC(C)=O)[C@H](O[C@H]4[C@H](O)[C@@H](NC(C)=O)C(O)O[C@@H]4CO)O[C@@H]3CO)O[C@@H]2CO)O[C@H](CO)[C@@H](O[C@@H]2O[C@H](CO)[C@@H](O[C@@H]3O[C@H](CO)[C@@H](O[C@@H]4O[C@H](CO)[C@@H](O[C@@H]5O[C@H](CO)[C@@H](O)[C@H](O)[C@H]5NC(C)=O)[C@H](O)[C@H]4NC(C)=O)[C@H](O)[C@H]3NC(C)=O)[C@H](O)[C@H]2NC(C)=O)[C@@H]1O (some centres unmarked) [chitooctaose]
- number of down-regulated genes in wild-type plants ([1]; 1.5 fold, P<0.05): 227 genes
- number of up-regulated genes in wild-type plants ([1]; 1.5 fold, P<0.05): 663 genes
- number of genes that responded more than 1.5 fold (P<0.05) to chitooctaose elicitation ([1]; in both the wild-type and mutant plants, 30 minutes after the treatment): 909 genes
- number of genes with a change in transcript levels in wild-type plants ([1]; out of the 909 genes, 1.5 fold, P<0.05): 890 genes
- number of down-regulated genes in the mutant ([2]; AtLysM RLK1 mutant): 17 genes
- number of up-regulated genes in the mutant ([2]; AtLysM RLK1 mutant): 16 genes
- number of genes responsive in the mutant ([2]; out of 909, AtLysM RLK1 mutant): 33 genes
- induction of the selected CRGs in the AtLysM RLK1 insertion mutant [3]: almost completely blocked the induction
- induction of the selected CRGs in L. japonicus nfr1-1 and nfr5-1 mutants [4]: did not block the induction

Molecule: chitin
- increase in transcription of At2g23770 [5]: 2 fold
- increase in transcription of At2g33580 [5]: 13 fold
- increase in transcription of At3g21630 [5]: 2 fold
- induction of soybean LysM RLK genes (soybean LysM RLK genes): induced
- number of transcription factors whose expression is enhanced by chitin treatment (transcription factors): over 120 transcription factors

Molecule: chitooligosaccharides
- share of CRGs whose regulation is blocked by the AtLysM RLK1 mutation ([2]; AtLysM RLK1 mutant vs wild type): ~98%
- induction of the AtLysM RLK1 gene (AtLysM RLK1 gene): induced
- resistance after pretreatment, A. brassicicola (Alternaria brassicicola; [7]): did not enhance resistance
- disease symptoms (lesion size and spore production) after A. brassicicola inoculation (Alternaria brassicicola; [8]): reduced disease symptoms
- resistance after pretreatment, P. syringae pv. tomato DC3000 [6, 7]: did not enhance resistance
- growth of the bacterial pathogen P. syringae pv. tomato DC3000 [6, 8]: inhibited the growth

Source: patent US8558056B2, “LysM receptor-like kinases to improve plant defense response against fungal pathogens” (The Curators of the University of Missouri, priority 2006, dated 2013)
